Common to all, as to assay type: cell-based
One assay concerns SW480 (G12V) cells. As to the kind of experiment: Cell viability assay (CELLTITER-GLO), SW480 cells. To be noted: Homo sapiens, 72 h, 3 days at 37° C., CELLTITER-GLO luminescence, read-out: Inhibition of Cancerous Cells IC50 (μM) SW480 (G12V). As for the experimental part: (§1) AsPC-1, 1358, and SW48 cells were cultured in RPMI 1640 media supplemented with 10% fetal bovine serum, streptomycin, and penicillin. Lovo and SW480 cells were cultured in DMEM media supplemented with 10% fetal bovine serum, streptomycin, and penicillin. The cell lines were plated in their respective medium supplemented with 2.5% fetal bovine serum, streptomycin, and penicillin. All cell lines were plated in white walled 96-well plates at 2,000 cells/well or 384-well plates at 500 cells/well, except Lovo, which were plated at 4,000 or 1,000 cells/well, respectively. The cells were incubated in DMSO (control) or a compound for 3 days at 37° C. under 5% CO2. A CELLTITER-GLO® reagent (100 μL) was then added to each well. After a 10 min incubation with shaking, luminescence was measured using an ENVISION® multimode plate reader.
Background: In ATP-based viability assays light output follows the ATP content of the culture.

A further assay deals with SW48 (wt) cells. As to the kind of experiment: Cell viability assay (CELLTITER-GLO), SW48 cells. Conditions: Homo sapiens, 72 h, 3 days at 37° C., CELLTITER-GLO luminescence, read-out: Inhibition of Cancerous Cells IC50 (μM) SW48 (wt). As for the experimental part: as §1
The test system of a further assay is AsPC-1 (G12D) cells. As to the kind of experiment: Cell viability assay (CELLTITER-GLO), AsPC-1 cells. To be noted: Homo sapiens, ASPC1, 72 h, 3 days at 37° C., CELLTITER-GLO luminescence, read-out: Inhibition of Cancerous Cells IC50 (μM) AsPC-1 (G12D). As for the experimental part: as §1
In the next assay the test system is Lovo (G13D) cells. Description: Cell viability assay (CELLTITER-GLO), Lovo cells. Conditions: Homo sapiens, 72 h, 3 days at 37° C., CELLTITER-GLO luminescence, read-out: Inhibition of Cancerous Cells IC50 (μM) Lovo (G13D). As for the experimental part:
as §1

For another assay, the system named is H358 (G12C) cells. Description: Cell viability assay (CELLTITER-GLO), H358 cells. To be noted: Homo sapiens, NCI-H358, 72 h, 3 days at 37° C., CELLTITER-GLO luminescence, read-out: Inhibition of Cancerous Cells IC50 (μM) H358 (G12C). On the procedure:
as §1

Molecules are shown by their SMILES.

`COc1cc2c(N[C@H](C)c3cccc(Br)c3)nc(C)nc2cc1OCCCCCCCN1CCN(C(=O)COc2cccc(N3CCC(=O)NC3=O)c2)CC1` [Compound C4, (R)-1-(3-(2-(4-(7-((4-((1-(3-Bromophenyl)ethyl)amino)-6-methoxy-2-methyl-quinazolin-7-yl)oxy)heptyl)piperazin-1-yl)-2-oxoethoxy)phenyl)dihydropyrimidine-2,4(1H,3H)-dione]: the IC50 in the assay with SW480 (G12V) cells stood at 0.73 µM; in the assay with SW48 (wt) cells, 1.3 µM; in the assay with AsPC-1 (G12D) cells, 1.4 µM; with Lovo (G13D) cells, 0.94 µM; in the assay on H358 (G12C) cells, 1.2 µM.

Consider `COc1cc2c(N[C@H](C)c3cccc(Br)c3)nc(C)nc2cc1OCCCCCCCCCN1CCN(C(=O)COc2cccc(N3CCC(=O)NC3=O)c2)CC1` [Compound C5, (R)-1-(3-(2-(4-(9-((4-((1-(3-Bromophenyl)ethyl)amino)-6-methoxy-2-methyl-quinazolin-7-yl)oxy)nonyl)piperazin-1-yl)-2-oxoethoxy)phenyl)dihydropyrimidine-2,4(1H,3H)-dione], for which the half-inhibitory concentration (IC50) stood at 0.57 µM with SW480 (G12V) cells; 2 µM in the assay with SW48 (wt) cells; 1.5 µM in the assay on AsPC-1 (G12D) cells; 0.63 µM with Lovo (G13D) cells; 1.9 µM in the assay with H358 (G12C) cells.

In the case of `COc1cc2c(N[C@H](C)c3cccc(Br)c3)nc(C)nc2cc1OCCCCCCCCCCCN1CCN(C(=O)COc2cccc(N3CCC(=O)NC3=O)c2)CC1` [Compound C6, (R)-1-(3-(2-(4-(11-((4-((1-(3-Bromophenyl)ethyl)amino)-6-methoxy-2-methyl-quinazolin-7-yl)oxy)undecyl)piperazin-1-yl)-2-oxoethoxy)phenyl)dihydropyrimidine-2,4(1H,3H)-dione], the IC50 with SW480 (G12V) cells is 0.58 µM; in the assay on SW48 (wt) cells, 2.8 µM; in the assay on AsPC-1 (G12D) cells it was 3.4 µM; with Lovo (G13D) cells it was 0.74 µM; in the assay with H358 (G12C) cells it was 3.3 µM.

Regarding `COc1cc2c(N[C@H](C)c3cccc(Br)c3)nc(C)nc2cc1OCCCCCCCCCCCN1CCN(C(=O)CNc2ccc3c(N4CCC(=O)NC4=O)nn(C)c3c2)CC1` [Compound D7, (R)-1-(6-((2-(4-(11-((4-((1-(3-Bromophenyl)ethyl)amino)-6-methoxy-2-methyl-quinazolin-7-yl)oxy)undecyl)piperazin-1-yl)-2-oxoethyl)amino)-1-methyl-1H-indazol-3-yl)-dihydropyrimidine-2,4(1H,3H)-dione], the IC50 is 0.36 µM with SW480 (G12V) cells; 0.67 µM in the assay on SW48 (wt) cells; 4.5 µM with AsPC-1 (G12D) cells; 1.1 µM in the assay with Lovo (G13D) cells; > 10 µM in the assay with H358 (G12C) cells.

In the case of `COc1cc2c(N[C@H](C)c3cccc(Br)c3)nc(C)nc2cc1OCCCCCCCCCN1CCN(C(=O)CNc2ccc3c(N4CCC(=O)NC4=O)nn(C)c3c2)CC1` [Compound D8, (R)-1-(6-((2-(4-(9-((4-((1-(3-Bromophenyl)ethyl)amino)-6-methoxy-2-methyl-quinazolin-7-yl)oxy)nonyl)piperazin-1-yl)-2-oxoethyl)amino)-1-methyl-1H-indazol-3-yl)-dihydropyrimidine-2,4(1H,3H)-dione], the IC50 in the assay with SW480 (G12V) cells stood at 0.35 µM; with SW48 (wt) cells, 0.4 µM; in the assay with AsPC-1 (G12D) cells, 1.7 µM; with Lovo (G13D) cells it was 1.2 µM; with H358 (G12C) cells it was 6.1 µM.

In the case of `COc1cc2c(N[C@@H](C)c3cccc(Br)c3)nc(C)nc2cc1OCCCCCCCCCN1CCN(C(=O)CNc2cccc3c(N4CCC(=O)NC4=O)nn(C)c23)CC1` [Compound D9, (S)-1-(7-((2-(4-(9-((4-((1-(3-Bromophenyl)ethyl)amino)-6-methoxy-2-methyl-quinazolin-7-yl)oxy)nonyl)piperazin-1-yl)-2-oxoethyl)amino)-1-methyl-1H-indazol-3-yl)dihydropyrimidine-2,4(1H,3H)-dione], the IC50 was found to be 1.1 µM in the assay on SW480 (G12V) cells; 2.5 µM in the assay with SW48 (wt) cells; 4.7 µM with AsPC-1 (G12D) cells; 1.9 µM in the assay with Lovo (G13D) cells; 4.5 µM in the assay on H358 (G12C) cells.

For `COc1cc2c(N[C@H](C)c3cccc(Br)c3)nc(C)nc2cc1OCCCCCCCCCCCN1CCN(C(=O)CNc2cccc3c(N4CCC(=O)NC4=O)nn(C)c23)CC1` [Compound D10, (R)-1-(7-((2-(4-(11-((4-((1-(3-Bromophenyl)ethyl)amino)-6-methoxy-2-methyl-quinazolin-7-yl)oxy)undecyl)piperazin-1-yl)-2-oxoethyl)amino)-1-methyl-1H-indazol-3-yl)-dihydropyrimidine-2,4(1H,3H)-dione], the IC50 in the assay with SW480 (G12V) cells is 1.2 µM; with SW48 (wt) cells, > 10 µM; in the assay on AsPC-1 (G12D) cells, > 10 µM; in the assay with Lovo (G13D) cells, 1.4 µM; in the assay on H358 (G12C) cells it was > 10 µM.

For the molecule `COc1cc2nc(C)nc(N[C@H](C)c3cccc(Br)c3)c2cc1OC` [reference compound], the IC50 is 3.4 µM in the assay with SW480 (G12V) cells; 3.6 µM with SW48 (wt) cells; 5.1 µM with AsPC-1 (G12D) cells; 2.5 µM in the assay on Lovo (G13D) cells; 3.2 µM in the assay on H358 (G12C) cells.

One may read the IC50 as the concentration that inhibits the measured activity by half.
